The record followed here is patent EP4725957A1, “GROUP OF CYCLIC ALKALINE LIPOPEPTIDE COMPOUNDS, AND PREPARATION METHOD THEREFOR AND USE THEREOF” (Institute of Medicinal Biotechnology, Chinese Academy of …, priority 2023, dated 2024).

Each structure is given as a SMILES string. In brackets after ≈: the same amount, converted by molar mass. Bridge positions count the residues as written; N and C are the ends. Square brackets hold non-standard residues; d marks the D form. Peptide text beside a SMILES is read from it. * marks the point of attachment. Heptanoyl(6-Me) = CC(C)CCCCC(=O)*; Dab = NCC[C@H](N)C(=O)O; Dap = NC[C@H](N)C(=O)O

The nature of data set [1]: Nephrotoxicity assay: in vitro cytotoxicity of HK-2 cells by CCK-8 assay. It is filed as cell-based. The note with it: human, HK-2 cells (human renal), 72 h incubation with drug-containing medium. In short, it runs like this: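 Compounds in sterile water, diluted to final 500, 250, 200, 100, 50, 25 and 12.5 µg/mL, were applied for 72 h to human HK-2 kidney cells. Absorbance at 450 nm after 3 h CCK-8 gave viability against untreated wells, and IC50 came from logarithmic regression; three replicates.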
A general note: Formazan colour is commonly taken as a measure of viable cells.

The subject of the next data set is Healthy ICR mice. The data set can be described thus: Acute toxicity test in healthy mice, single tail vein injection. Format: in vivo. The note with it: within 7 days. As to the method: (§1) Healthy ICR mice aged 5-6 weeks were selected, with 5-10 mice in each group, and administered via a single tail vein injection at an administration volume of 20 mL/kg. In the preliminary test, the drug dose concentrations that caused 100% mortality and no mortality in mice after a single intravenous injection were determined. Based on this dose range, 4-5 dose groups were set up, with a dose ratio of 1:0.5 to 1:0.8 between adjacent groups. The mortality of animals within 7 days after administration was recorded. According to the mortality rate of experimental animals in each group, the median lethal dose (LD50) of the test samples, i.e., the dose causing 50% mortality of the tested animals, was calculated by the Bliss method.

Test in data set [2]: as above
Format: in vivo. The note with it: mouse, in vivo, iv; ICR mice, single tail vein injection, Bliss method. As to the method:
as §1

For data set [3], the system named is Pseudomonas aeruginosa PAE19-3. It is filed as cell-based. The note with it: Pseudomonas aeruginosa PAE19-3. In short, it runs like this:
(§2)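 Per CLSI, bacteria at a final (2-4) × 10^5 CFU/mL were exposed in Mueller-Hinton broth to two-fold compound series (final 64 down to 0.03 mg/L). MIC read after 16-20 h at 35-37°C in sealed plates.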

The subject of data set [4] is Klebsiella pneumoniae KPN+19-15. Format: cell-based. The following applies: Klebsiella pneumoniae KPN 19-15. In short, it runs like this:
as §2

In data set [5] the test system is Escherichia coli ATCC BAA-2523. It is filed as cell-based. The following applies: Escherichia coli ATCC BAA-2523. In short, it runs like this:
as §2

The subject of data set [6] is Pseudomonas aeruginosa ATCC 27853. Format: cell-based. The note with it: Pseudomonas aeruginosa ATCC27853. In short, it runs like this:
as §2

For data set [7], the system named is Escherichia coli ATCC BAA-2340 (KPC). It is filed as cell-based. The following applies: Escherichia coli ATCC BAA-2340 (KPC). In short, it runs like this:
as §2

Data set [8] deals with Acinetobacter baumannii NCTC 13304 (OXA-27). It is filed as cell-based. The following applies: Acinetobacter baumannii NCTC 13304 (OXA-27). In short, it runs like this:
as §2

Data set [9] concerns Klebsiella pneumoniae ATCC BAA-1705 (KPC). Format: cell-based. The note with it: Klebsiella pneumoniae ATCC BAA-1705 (KPC). In short, it runs like this: as §2
The test system of data set [10] is Acinetobacter baumannii ABA19-1. It is filed as cell-based. The note with it: Acinetobacter baumannii ABA19-1. In short, it runs like this: as §2

For `CC(C)CCCCC(=O)N[C@@H](CCN)C(=O)N[C@H](C(=O)N[C@@H](CN)C(=O)N[C@H]1CCNC(=O)[C@H]([C@@H](C)O)NC(=O)[C@H](CCN)NC(=O)[C@H](CCN)NC(=O)[C@H]([C@@H](C)O)NC(=O)[C@@H](Cc2ccccc2)NC(=O)[C@H](CCN)NC1=O)[C@@H](C)O` [Compound 7, 6-methylheptanoyl-Dab-Thr-Dap-ring(4-10)[Dab-Dab-D-Phe-Thr-Dab-Dab-Thr]] ({Heptanoyl(6-Me)}-[Dab]T[Dap][Dab][Dab][dF]T[Dab][Dab]T; lactam 4-C), the IC50 (as a rule, the midpoint of a concentration-inhibition curve) at 72 h in data set [1] is more than 500 µg/mL. Moreover, the mortality rate in the data set on Healthy ICR mice (single tail vein injection 15.36 mg/kg) came to 0%; in the data set with Healthy ICR mice (single tail vein injection 19.2 mg/kg), 12.5%; in the data set with Healthy ICR mice (single tail vein injection 24 mg/kg), 25%; in the data set on Healthy ICR mice (single tail vein injection 30 mg/kg), 100%. The LD50 (in general, the dose expected to kill half of the subjects tested) at 168 h in data set [2] was 24.4 mg/kg. Besides, the MIC – broadly, the least concentration at which growth counts as inhibited – is 0.125 µg/mL (≈ 0.107 µM) in [3]; not above 0.03 µg/mL in [4]; not above 0.03 µg/mL in data set [5]; not above 0.03 µg/mL in data set [6]; not above 0.03 µg/mL in [7]; not above 0.03 µg/mL in data set [8]. Also, the MIC in data set [9] and in data set [10] was not above 0.03 µg/mL throughout.
